Patent US20220185797A1, “SELECTIVE FOXO INHIBITORS FOR TREATMENT OF DIABETES AND OTHER DISORDERS RELATED TO IMPAIRED PANCREATIC FUNCTION” (THE TRUSTEES OF COLUMBIA UNIVERSITYIN THE CITY OF NEW YORK, priority 2019, published 2022)
Where two headings read alike, the source gives them in different places. Marks after values point to notes of the source that are not given here.

Legend:
[1] = Metabolic stability in human microsomes; conditions: for % remaining at 45 min: Human microsome
[2] = Metabolic stability in dog microsomes; conditions: for % remaining at 45 min: Dog microsome; for metabolic stability compared with Compound 9 (Langlet et al.): dog and/or human microsomes, in words
[3] = target: T1, acetylcholinesterase (AChE) (Homo sapiens, UniProt P22303); experiment: biochemical; assay type: biochemical
T1 construct: host or cells: CHO cells
T1 sequence (P22303 32-614): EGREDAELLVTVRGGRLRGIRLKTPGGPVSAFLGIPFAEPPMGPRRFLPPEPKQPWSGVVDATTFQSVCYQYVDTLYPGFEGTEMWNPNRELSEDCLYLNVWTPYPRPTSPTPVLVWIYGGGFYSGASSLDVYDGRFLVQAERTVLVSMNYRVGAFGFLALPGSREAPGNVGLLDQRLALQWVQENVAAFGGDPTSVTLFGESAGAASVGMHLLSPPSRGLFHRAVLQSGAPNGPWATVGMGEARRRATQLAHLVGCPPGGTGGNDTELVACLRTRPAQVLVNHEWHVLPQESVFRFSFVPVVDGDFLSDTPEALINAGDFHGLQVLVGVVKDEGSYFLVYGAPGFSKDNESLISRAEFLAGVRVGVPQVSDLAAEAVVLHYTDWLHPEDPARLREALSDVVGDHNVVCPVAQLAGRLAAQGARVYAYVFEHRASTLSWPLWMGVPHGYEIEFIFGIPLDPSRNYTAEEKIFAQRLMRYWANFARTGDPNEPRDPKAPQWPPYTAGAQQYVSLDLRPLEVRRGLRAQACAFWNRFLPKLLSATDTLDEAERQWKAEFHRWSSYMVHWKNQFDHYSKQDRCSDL
Method: The protein source was Human (recombinant) Expressed in CHO cells. The enzymatic activity was studied. The method employed was the detection of conversion of acetylthiocholine to thiocholine using DTNB. The substrate employed was Acetylthiocholine.
Enzyme and test compound were pre-incubated for 15 minutes at room temp before substrate addition. Acetylthiocholine and DTNB (5,5′-dithiobis-(2-nitrobenzoic acid)) were added and incubated at room temperature for 30 minutes. Signal was detected by measuring absorbance at 405 nm.
Percentage inhibition was calculated using the following formula: […]

[4] = Metabolic stability in mouse microsomes; assay type: in vitro ADME; conditions: for microsomal CLint at 0.75 h, 0.3 μM: CD-1, liver microsomes, pH 7.4, in vitro intrinsic clearance; for microsomal CLint at 0.75 h, 0.3 μM / % remaining at 45 min: Mouse microsome, 0.3 μM; for metabolic stability compared with Compound 10 (Langlet et al.): mouse microsomes, and/or human hepatocytes, in words
[5] = Metabolic stability in human hepatocytes; conditions: for % remaining at 90 min: Human hepatocyte, 0.3 μM; for hepatocyte CLint at 1.5 h, 0.3 µM: human, hepatocytes (cryopreserved)
Method: An in vitro system comprising human Hepatocytes was employed. The incubation conditions and sampling time point of test article and positive control were as follows. Test articles (0.3 μM) and positive controls (verapamil) were incubated in a 0.2mL volume in 96-well format. Stock solutions were received at 10 mM in DMSO and the Final DMSO % in incubation was 0.01%. […] Incubation plates were shaken on an automated orbital shaker at 600 rpm. Incubation time points were: 0, 15, 30, 60, 90 minutes.
Following this pre-incubation period, the test compound (DMSO stock solution) was added to the incubation plate, which was mixed to initiate the incubation. The reaction plate was sampled (20 μL aliquot) at the pre-determined incubation time points, the sample quenched with 80 μL of Stop solution with internal standard (Acetonitrile with 0.1% (v/v) formic acid containing 100 nM labetalol, 20 nM imipramine, and 200 nM diclofenac) and the samples were mixed well. After quenching the reaction, the reaction mixture was centrifuged and the samples were submitted for LC-MS/MS analysis. Depletion rate (kdep, min^−1) and % compound remaining was calculated by peak area ratio (PAR) with internal standard at each time point relative to time 0 min. The estimation of Clint(Unscaled) (in μl/min/10^6 cells) was performed with the following equation:

human FOXO1 = target: T2, human FOXO1 (Homo sapiens, UniProt Q12778); experiment: FOXO1 transcriptional reporter assay (insulin response element firefly luciferase / Renilla) in HEK293 cells; assay type: cell-based; conditions: HEK293 cells transfected with human FOXO1, 24 hours, class combines IC50 and maximal inhibition; read-out: IC50 (active range)
T2 construct: expressed in transfected cells; host or cells: HEK293
T2 sequence (Q12778 whole entry): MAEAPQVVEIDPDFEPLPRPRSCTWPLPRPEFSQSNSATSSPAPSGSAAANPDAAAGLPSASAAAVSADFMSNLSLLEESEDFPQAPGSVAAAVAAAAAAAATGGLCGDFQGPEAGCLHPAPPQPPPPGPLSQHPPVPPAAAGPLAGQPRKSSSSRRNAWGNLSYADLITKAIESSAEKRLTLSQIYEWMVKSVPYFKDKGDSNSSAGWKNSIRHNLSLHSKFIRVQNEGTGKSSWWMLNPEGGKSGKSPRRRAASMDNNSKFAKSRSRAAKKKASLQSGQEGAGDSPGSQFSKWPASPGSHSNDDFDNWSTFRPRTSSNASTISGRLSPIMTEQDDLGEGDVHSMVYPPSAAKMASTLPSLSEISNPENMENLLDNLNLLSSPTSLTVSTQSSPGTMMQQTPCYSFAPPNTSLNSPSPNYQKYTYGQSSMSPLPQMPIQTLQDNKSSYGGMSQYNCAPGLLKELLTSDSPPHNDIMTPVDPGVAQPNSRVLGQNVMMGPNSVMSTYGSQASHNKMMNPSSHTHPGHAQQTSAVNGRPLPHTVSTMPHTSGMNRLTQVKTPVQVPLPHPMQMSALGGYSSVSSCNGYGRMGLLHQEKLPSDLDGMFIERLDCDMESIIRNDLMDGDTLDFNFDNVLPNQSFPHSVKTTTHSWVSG
Method: The activities of FOXO1 inhibitors were determined by a transcriptional reporter assay. HEK293 cells were plated onto 96-well plates with moat at 20000 cells per well in Eagle's Minimum Essential Medium (EMEM) containing 1% fetal bovine serum, and incubated overnight at 37° C. and 5% CO2. […] Compounds were then added at varying final concentrations ranging from 50 μM to 1 nM, with final DMSO concentration of 0.5% in each well. Duplicate wells were included for each treatment condition. Cells were incubated for 24 hours at 37° C. and 5% CO2. Luciferase activities in each well were measured using Dual-Glo Luciferase Assay System (Promega) according to manufacturer's protocol and a plate reader suitable for luminescence detection. Firefly luciferase activity was divided by Renilla luciferase activity to calculate a ratio for each well. The ratio in wells containing cells transfected with all 3 plasmids listed above and receiving only DMSO without compound addition was set to 100%. The ratio in wells containing cells transfected with plasmids (1), (3), and 5 ng of pcDNA3.1 containing the open reading frame of red fluorescent protein (instead of human FOXO1) and treated with DMSO only was set to 0%. The ratio in each well receiving compound treatment was normalized and expressed as a percentage. Data were fit by 4-parameter logistic regression to determine IC50 and maximal inhibition values. Each compound was tested in a minimum of 2 independent experiments.

[6] = selectivity studies, Table 4, read-out: AChE IC50
[7] = Human recombinant AChE expressed in CHO cells, read-out: AChE Inhibitor IC50

COc1ccc(C(=O)Nc2cc(-c3nc4ccccc4[nH]3)n[nH]2)cc1Cl [Compound 1, reference compound]
% remaining at 45 min [1]: 3.2% | microsomal CLint at 0.75 h, 0.3 μM ([1]; human, microsomes, pH 7.4): 306 µL/min/mg | % remaining at 45 min [2]: 12% | microsomal CLint at 0.75 h, 0.3 μM ([2]; dog, microsomes, pH 7.4): 185 µL/min/mg

CN1CCN(c2ccc(C(=O)Nc3cc(-c4nc5ccccc5[nH]4)n[nH]3)cc2)CC1 [Compound 2, reference compound]
IC50 [3, 6]: 1710 nM | microsomal CLint at 0.75 h, 0.3 μM [4]: 206 µL/min/mg | % remaining at 45 min [4]: 10% | % remaining at 90 min [5]: 22% | hepatocyte CLint at 1.5 h, 0.3 µM [5]: 18 µL/min/1e6 cells | IC50 (human FOXO1): < 50 nM

COc1cc(C(=O)Nc2cc(-c3nc4ccccc4[nH]3)n[nH]2)ccc1Cl [Compound 20]
% remaining at 45 min [1]: 52% | microsomal CLint at 0.75 h, 0.3 μM ([1]; human, microsomes, pH 7.4): 57 µL/min/mg | % remaining at 45 min [2]: 53% | metabolic stability compared with Compound 9 (Langlet et al.) [2]: significantly more stable | microsomal CLint at 0.75 h, 0.3 μM ([2]; dog, microsomes, pH 7.4): 58 µL/min/mg

O=C(Nc1cc(-c2nc3ccccc3[nH]2)n[nH]1)c1ccc(O)c(Cl)c1 [Compound 24]
% remaining at 45 min [1]: 93% | microsomal CLint at 0.3 μM ([1]; human, microsomes, pH 7.4): < 20 µL/min/mg | % remaining at 45 min [2]: 88% | metabolic stability compared with Compound 9 (Langlet et al.) [2]: significantly more stable | microsomal CLint at 0.3 μM ([2]; dog, microsomes, pH 7.4): < 20 µL/min/mg

CC(=O)Nc1cc(-c2nc3ccccc3[nH]2)n[nH]1 [Compound 29]
IC50 (human FOXO1): > 10000 nM

Nc1cc(-c2nc3ccccc3[nH]2)n[nH]1 [Compound 32]
IC50 (human FOXO1): > 10000 nM

CC(=O)N1CCN(c2ccc(C(=O)Nc3cc(-c4nc5ccccc5[nH]4)n[nH]3)cc2)CC1 [Compound 35]
microsomal CLint at 0.75 h, 0.3 μM [4]: 70 µL/min/mg | % remaining at 45 min [4]: 44% | metabolic stability compared with Compound 10 (Langlet et al.) [4]: significantly more stable | IC50 (human FOXO1): < 1000 nM

O=C(Nc1cc(-c2nc3ccccc3[nH]2)n[nH]1)c1ccc(N2CCNCC2)cc1 [Compound 36]
IC50 [3, 7]: > 10000 nM | microsomal CLint at 0.75 h, 0.3 μM [4]: 41 µL/min/mg | % remaining at 45 min [4]: 68% | metabolic stability compared with Compound 10 (Langlet et al.) [4]: significantly more stable | % remaining at 90 min [5]: 110 * % | hepatocyte CLint at 1.5 h, 0.3 µM [5]: 2.6 µL/min/1e6 cells

COc1ccc(C(=O)N(C)c2cc(-c3nc4ccccc4[nH]3)n[nH]2)cc1Cl [Compound 37]
IC50 [3, 6]: > 10000 nM

CN1CCC(c2ccc(C(=O)Nc3cc(-c4nc5ccccc5[nH]4)n[nH]3)cc2)CC1 [Compound 42]
IC50 (human FOXO1): < 1000 nM

O=C(Nc1cc(-c2nc3ccccc3[nH]2)[nH]n1)c1ccc(N2CCOCC2)cc1 [Compound 67]
IC50 [3, 7]: > 10000 nM | microsomal CLint at 0.75 h, 0.3 μM [4]: 52 µL/min/mg | % remaining at 45 min [4]: 58% | metabolic stability compared with Compound 10 (Langlet et al.) [4]: significantly more stable

COc1ccc(C(=O)Nc2cc(-c3nc4c(F)cccc4[nH]3)[nH]n2)cc1Cl [Compound 73]
% remaining at 45 min [1]: 13% | microsomal CLint at 0.75 h, 0.3 μM ([1]; human, microsomes, pH 7.4): 184 µL/min/mg | % remaining at 45 min [2]: 31% | metabolic stability compared with Compound 9 (Langlet et al.) [2]: significantly more stable | microsomal CLint at 0.75 h, 0.3 μM ([2]; dog, microsomes, pH 7.4): 104 µL/min/mg

COc1ccc(C(=O)Nc2cc(-c3nc4cc(OC(F)(F)F)ccc4[nH]3)[nH]n2)cc1Cl [Compound 84]
IC50 (human FOXO1): 1000 to 10000 nM

COc1ccc(C(=O)Nc2cc(-c3nc4c(C(F)(F)F)cccc4[nH]3)[nH]n2)cc1Cl [Compound 85]
IC50 (human FOXO1): < 1000 nM

COc1ccc(C(=O)Nc2cc(-c3nc4cc(C(F)(F)F)ccc4[nH]3)[nH]n2)cc1Cl [Compound 86]
IC50 (human FOXO1): < 1000 nM
